Assay results reported in ChEMBL document CHEMBL1124377, “Potent and prolonged acting cyclic lactam analogues of alpha-melanotropin: design based on molecular dynamics” (J Med Chem, 1989).

Tests used:
[1] = tested on: Melanocyte-stimulating hormone receptor (Anolis carolinensis); assay: […] potency against Anolis carolinensis using lizard skin bioassay; effect did not continue after the removal of the compound
[2] = tested on: Melanocyte-stimulating hormone receptor (Rana pipiens); assay: […] potency against Rana pipiens using frog skin bioassay; effect did not continue after the removal of the compound

CCCC[C@H](NC(C)=O)C(=O)N[C@H]1CC(=O)NCCC[C@@H](C(N)=O)NC(=O)[C@H](Cc2c[nH]c3ccccc23)NC(=O)[C@H](CCCN=C(N)N)NC(=O)[C@@H](Cc2ccccc2)NC(=O)[C@H](Cc2cnc[nH]2)NC1=O
Relative potency [1]: 20
Relative potency [2]: 1
